# US8178506B2, “Oligomeric compounds and compositions for use in modulation of small non-coding RNAs” (Regulus Therapeutics Inc., priority 2003, dated 2012)
# In the oligonucleotide strings, read from the 5' end, every base follows the letter of its sugar. An asterisk marks phosphorothioate; unmarked linkages are phosphodiester. Other units and linkages are bracketed, terminal groups are in braces. A string of capitals states the bases alone. e = 2'-O-(2-methoxyethyl) (MOE); [5mC] = 5-methylcytosine; d = 2'-deoxy (DNA)
# Tests used:
# [1] = tested on: mir-21 miRNA; assay: pGL3-mir-21 sensor luciferase assay in HeLa cells; format: cell-based, human
# How it was run: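 HeLa cells were transiently transfected with pGL3-Control carrying a mir-21-complementary site in the luciferase 3′UTR, which endogenous mir-21 silences. 2′-MOE oligomeric compounds were given at 10 or 50 nM, or at 1.9, 5.5, 16.7 and 50 nM for dose response. Luciferase was normalized to pRL-CMV and expressed as percent of the plasmid-only untreated control.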
# [2] = tested on: T47D cells; assay: Caspase-3 activity assay (apoptosis) in T47D cells; conditions: T47D cells, 48 hours
# [3] = tested on: PPP2CB protein; assay: Immunoblot of PPP2CB protein in differentiating adipocytes; format: cell-based, human; conditions: differentiating adipocytes 7- and 10-days post-differentiation, 250 nM
# Description: When miRNAs have effects on the expression of downstream genes or proteins encoded by these genes, it is advantageous to measure the protein levels of those gene products, and to do this, western blot (immunoblot) analysis is employed. Immunoblot analysis is carried out using standard methods. Briefly, preadipocytes and differentiating adipocytes were cultured as described previously, and differentiating adipocytes are sampled at several timepoints after stimulation of differentiation. Cells were treated with 250 nM oligomeric compounds and harvested 16-20 h after oligomeric compound treatment. Cells were washed, lysed in RIPA buffer with protease inhibitor cocktail (Roche Diagnostics Corporation, Indianapolis, Ind.), suspended in Laemmli buffer (20 ul/well), boiled for 5 minutes and loaded onto either an 8% SDS-PAGE or a 4-20% gradient SDS-PAGE gel. Gels are run for approximately 1.5 hours at 150 V, and transferred to PVDF membrane for western blotting. […] Bands are visualized and quantitated using a PHOSPHORIMAGER™ (Molecular Dynamics, Sunnyvale Calif.) or the ChemiDoc™ system (Bio-Rad Laboratories, Inc., Hercules, Calif.). Thus, the effects of treatment of many cell types (including, but not limited to, preadipocytes, differentiating adipocytes, HeLa, T-24 and A549 cells) with oligomeric compounds of the present invention on the levels of gene expression products can be assessed. […]
# [4] = Table 44, pGL3-mir-21 sensor-expressing HeLa cells, 10 nM
# [5] = Table 44, pGL3-mir-21 sensor-expressing HeLa cells, 50 nM
substance,measurement,setting,value
327901 (antisense eT*eG*eA*eG*e[5mC]*eT*eA*e[5mC]*eA*eG*eT*eG*e[5mC]*eT*eT*e[5mC]*eA*eT*e[5mC]*eT*e[5mC]*eA) [compound 327901],luciferase expression % UTC,[1]; [4],74.2 % UTC
same,luciferase expression % UTC,[1]; [5],83.1 % UTC
327917 (antisense eT*e[5mC]*eA*eA*e[5mC]*eA*eT*e[5mC]*eA*eG*eT*e[5mC]*eT*eG*eA*eT*eA*eA*eG*e[5mC]*eT*eA) [compound 327917],luciferase expression % UTC,[1]; [4],1037.6 % UTC
same,luciferase expression % UTC,[1]; [5],847.5 % UTC
same,luciferase expression % UTC,"[1]; Table 50, pGL3-mir-21 sensor-expressing HeLa cells, 1.9 nM, normalized to pRL-CMV",522 % UTC
same,luciferase expression % UTC,"[1]; Table 50, pGL3-mir-21 sensor-expressing HeLa cells, 5.5 nM, normalized to pRL-CMV",1293 % UTC
same,luciferase expression % UTC,"[1]; Table 50, pGL3-mir-21 sensor-expressing HeLa cells, 16.7 nM, normalized to pRL-CMV",2470 % UTC
same,luciferase expression % UTC,"[1]; Table 50, pGL3-mir-21 sensor-expressing HeLa cells, 50 nM, normalized to pRL-CMV",4534 % UTC
328382 (e[5mC]*eA*eG*eA*e[5mC]*dT*d[5mC]*d[5mC]*d[5mC]*dA*dA*d[5mC]*dT*dG*dA*e[5mC]*e[5mC]*eA*eG*eA) [compound 328382],"Fold Increase over UTC (caspase-3 activity, apoptosis)","[2]; 200 nM oligomeric compound, experiment of Table 10",0.9 fold
328691 (e[5mC]*e[5mC]*e[5mC]*e[5mC]*eA*dT*d[5mC]*dT*dT*dA*dG*d[5mC]*dA*dT*d[5mC]*eT*eA*eA*eG*eG) [compound 328691],Fold Increase over UTC (caspase activity),"[2]; 200 nM, relative to untreated control",0.9
TGAGCTACAGTGCTTCATCTCA [ISIS 327901] (chemistry not given here) [uniform 2′-MOE PS; targets mir-143],PPP2CB protein levels,[3],higher
